Laboratory results taken from patent US6838476B1, “Imidazoles with anti-inflammatory activity” (J. Uriach & Cia, SA, priority 1998, dated 2005).
Where a name gives a salt, the structure may show the parent alone.

Row | melting point [°C] | Compound
1 | 181 to 182 | Cc1ccc(-c2c(Cl)ncn2-c2ccc(S(C)(=O)=O)cc2)cc1Cl (as salt: HCl) [4(13), 4-Chloro-5-(3-chloro-4-methylphenyl)-1-(4-methylsulfonylphenyl)-imidazole]
2 | 178 | COCc1cccc(-c2c(Cl)ncn2-c2ccc(S(C)(=O)=O)cc2)c1 (as salt: HCl) [4(14), 4-Chloro-5-(3-methoxymethylphenyl)-1-(4-methylsulfonylphenyl)-imidazole]
3 | 223 | CS(=O)(=O)c1ccc(-n2cnc(Cl)c2-c2ccc(Cl)nc2)cc1 (as salt: HCl) [4(16), 4-Chloro-5-(6-chloro-3-pyridyl)-1-(4-methylsulfonylphenyl)imidazole]
4 | 156 to 157 | CS(=O)(=O)c1ccc(-n2cnc(Cl)c2-c2ccc(Cl)c(Cl)c2)cc1 [4(4), 4-Chloro-5-(3,4-dichlorophenyl)-1(4-methylsulfonylphenyl)imidazole]
5 | 223 to 230 | CS(=O)(=O)c1ccc(-n2cnc(Cl)c2-c2cnc(Cl)c(Cl)c2)cc1 [4(19), 4-Chloro-5-(5,6-dichloro-3-pyridyl)-1-(4-methylsulfonylphenyl)imidazole]
6 | 251 | NS(=O)(=O)c1ccc(-n2cnc(Cl)c2-c2ccc(Cl)c(Cl)c2)cc1 [13(2), 4-[4-Chloro-5-(3,4-dichlorophenyl)imidazol-1-yl]benzenesulfonamide]
7 | 156 | Cc1ccc(-c2cncn2-c2ccc(S(C)(=O)=O)cc2)cc1 [Example 1(1), 5-(4-Methylphenyl)-1-(4-methylsulfonylphenyl)imidazole]
8 | 119 | CS(=O)(=O)c1ccc(-n2cncc2-c2ccc(F)cc2F)cc1 [Example 1(2), 5-(2,4-Difluorophenyl)-1-(4-methylsulfonylphenyl)imidazole]
9 | 164 | CS(=O)(=O)c1ccc(-n2cncc2-c2ccccc2)cc1 [Example 1(3), 1-(4-Methylsulfonylphenyl)-5-phenylimidazole]
10 | 185 to 187 | COc1ccc(-c2cncn2-c2ccc(S(C)(=O)=O)cc2)cc1 [Example 1(5), 5-(4-Methoxyphenyl)-1-(4-methylsulfonylphenyl)imidazole]
11 | 147 | Cc1ccc(-c2cncn2-c2ccc(S(C)(=O)=O)cc2)cc1F [Example 1(8), 5-(3-Fluoro-4-methylphenyl)-1-(4-methylsulfonylphenyl)imidazole]
12 | 188 to 189 | CS(=O)(=O)c1ccc(-n2cncc2-c2ccccc2F)cc1 [Example 1(9), 5-(2-Fluorophenyl)-1(4-methylsulfonylphenyl)imidazole]
13 | 141 to 142 | CS(=O)(=O)c1ccc(-n2cncc2-c2ccc(OC(F)(F)F)cc2)cc1 [Example 1(10), 1-(4-Methylsulfonylphenyl)-5-(4-trifluoromethoxyphenyl)imidazole]
14 | 174 to 175 | COc1cc(-c2cncn2-c2ccc(S(C)(=O)=O)cc2)ccc1C [Example 1(14), 5-(3-Methoxy-4-methylphenyl)-1(4-methylsulfonylphenyl)imidazole]
15 | 192 to 193 | CS(=O)(=O)c1ccc(-n2cncc2-c2ccc(Cl)cc2)cc1 [Example 1(15), 5-(4-Chlorophenyl)-1-(4-methylsulfonylphenyl)imidazole]
16 | 191 to 192 | CS(=O)(=O)c1ccc(-n2cncc2-c2ccc(Cl)nc2)cc1 [Example 1(16), 5-(6-Chloro-3-pyridyl)-1-(4-methylsulfonylphenyl)imidazole]
17 | 192 to 198 | COc1ccc(-c2cncn2-c2ccc(S(C)(=O)=O)cc2)c(Cl)n1 [Example 1(18), 5-(2-Chloro-6-methoxy-3-pyridyl)-1-(4-methylsulfonylphenyl)imidazole]
18 | 192 to 198 | CS(=O)(=O)c1ccc(-n2cncc2-c2cnc(Cl)c(Cl)c2)cc1 [Example 1(19), 5-(5,6-Dichloro-3-pyridyl)-1-(4-methylsulfonylphenyl)imidazole]
19 | 167 to 169 | CCCOc1ccc(-c2cncn2-c2ccc(S(C)(=O)=O)cc2)cc1 [Example 1(20), 1-(4-Methylsulfonylphenyl)-5-(4-propoxyphenyl)imidazole]
20 | 100 to 101 | CCOc1cc(OCC)cc(-c2cncn2-c2ccc(S(C)(=O)=O)cc2)c1 [Example 1(21), 5-(3,5-Diethoxyphenyl)-1-(4-methylsulfonylphenyl)imidazole]
21 | 153 to 155 | CSc1ccc(-c2cncn2-c2ccc(S(C)(=O)=O)cc2)cc1 [Example 1(24), 5-(4-Methylsulfanylphenyl)-1-(4-methylsulfonylphenyl)imidazole]
22 | 185 to 193 | CS(=O)(=O)c1ccc(-c2cnc(Cl)n2-c2ccccc2)cc1 [Example 11, 2-Chloro-5-(4-methylsulfonylphenyl)-1-phenylimidazole]
23 | 196 to 197 | NS(=O)(=O)c1ccc(-n2cncc2-c2ccc(F)cc2)cc1 [Example 14, 4-[5-(4-Fluorophenyl)imidazol-1-yl]benzenesulfonamide]
24 | 238 to 241 | CC(=O)Nc1ccc(-c2[nH]c(-c3ccc(S(C)(=O)=O)cc3)nc2Cl)cc1 [Example 18, 5-(4-Acetylaminophenyl)-4-chloro-(4-methylsulfonylphenyl)imidazole]
